Consider 9 compounds from patent US20230295157A1, “3-(1H-IMIDAZOL-2-YL)-2,3,8,8A-TETRAHYDROINDOLIZIN-5(1H)-ONE DERIVATIVES USEFUL AS FACTOR XIA INHIBITORS” (JANSSEN PHARMACEUTICA NV, priority 2020, published 2023).

The structures appear in SMILES notation.

One assay has as its target Factor XIa (Homo sapiens (Human), UniProt P03951). Description: Factor XIa inhibition assay (FLINT) utilizing a fluorophore-quencher pair peptide substrate. The class given is biochemical. As to conditions: 30 min preincubation, kinetic reads over 30 min, 5Fam-KLTRAETV-K5Tamra substrate 15 μM; read-out: FXIa Kin Inh IC50. The method, boiled down: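 FXIa ([…]) preincubated 30 min with compound (11-point 3-fold dilution, top 100 nM, 2% DMSO), then 15 μM quenched FXI Arg146-based peptide added; Tris pH 7.5, CaCl2, BSA, CHAPS. Fluorescence 485/520 nm read kinetically every 5 min over 30 min at RT; IC50 by 4-parameter fit.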

A further assay deals with human plasma kallikrein (Homo sapiens (Human), UniProt P03952). In words: Kallikrein inhibition assay (FLINT) utilizing a quenched AMC peptide substrate. As to conditions: 30 min preincubation, kinetic reads over 30 min, Z-Gly-Pro-Arg-AMC substrate 50 μM; read-out: Kallikrein Kin Inh IC50. It is filed as biochemical. The method, boiled down: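 Fluorogenic Z-Gly-Pro-Arg-AMC cleavage (50 μM substrate, 2 nM kallikrein, Tris pH 7.5, CaCl2, BSA, CHAPS, 2% DMSO) read kinetically at 340/440 nm for 30 min after 30-min compound pre-incubation. Compounds in 11-point 3-fold series from 1 μM; percent inhibition fitted to four-parameter equation for IC50.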
human plasma kallikrein, sequence (P03952 391-638): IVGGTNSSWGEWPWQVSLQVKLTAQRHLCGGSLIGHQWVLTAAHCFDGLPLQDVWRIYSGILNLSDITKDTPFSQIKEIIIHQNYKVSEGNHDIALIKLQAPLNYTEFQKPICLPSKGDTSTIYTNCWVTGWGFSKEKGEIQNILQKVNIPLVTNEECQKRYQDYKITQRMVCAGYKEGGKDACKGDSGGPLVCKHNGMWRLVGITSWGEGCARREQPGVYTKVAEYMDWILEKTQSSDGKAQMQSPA
human plasma kallikrein, sequence (P03952 20-390 partner): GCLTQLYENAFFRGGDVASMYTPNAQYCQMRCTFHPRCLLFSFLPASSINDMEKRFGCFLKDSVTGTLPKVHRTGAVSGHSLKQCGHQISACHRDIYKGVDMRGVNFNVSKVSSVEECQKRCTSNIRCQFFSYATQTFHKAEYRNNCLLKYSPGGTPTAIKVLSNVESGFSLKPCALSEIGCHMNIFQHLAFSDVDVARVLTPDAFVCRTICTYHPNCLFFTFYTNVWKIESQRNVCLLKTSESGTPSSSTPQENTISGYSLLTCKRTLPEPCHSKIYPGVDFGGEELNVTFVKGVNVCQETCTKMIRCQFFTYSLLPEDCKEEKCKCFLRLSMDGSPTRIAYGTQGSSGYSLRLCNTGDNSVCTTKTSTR

Factor XIa, sequence (P03951 388-625): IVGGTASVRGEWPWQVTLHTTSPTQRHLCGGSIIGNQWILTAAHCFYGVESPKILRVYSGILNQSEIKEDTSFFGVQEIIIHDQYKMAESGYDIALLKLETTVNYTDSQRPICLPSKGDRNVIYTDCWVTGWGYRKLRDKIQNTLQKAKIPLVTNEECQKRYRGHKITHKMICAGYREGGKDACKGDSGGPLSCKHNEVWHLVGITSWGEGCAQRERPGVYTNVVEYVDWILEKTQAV
Factor XIa, sequence (P03951 19-387 partner): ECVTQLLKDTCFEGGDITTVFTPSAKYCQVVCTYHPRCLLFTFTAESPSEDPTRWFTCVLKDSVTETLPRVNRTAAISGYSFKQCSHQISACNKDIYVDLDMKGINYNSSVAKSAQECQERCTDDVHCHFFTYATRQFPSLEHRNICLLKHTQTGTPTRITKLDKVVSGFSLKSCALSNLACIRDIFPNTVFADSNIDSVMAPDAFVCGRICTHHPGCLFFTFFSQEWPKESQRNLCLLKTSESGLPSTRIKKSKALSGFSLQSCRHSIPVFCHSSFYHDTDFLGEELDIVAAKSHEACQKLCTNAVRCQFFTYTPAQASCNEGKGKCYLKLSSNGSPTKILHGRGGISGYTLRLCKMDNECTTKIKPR

In general, IC50 refers to the concentration needed to halve the response being measured. For `O=C1C=C(c2c(-n3cnnn3)ccc(Cl)c2F)C[C@H]2CC[C@@H](c3nc(-c4ccc5[nH]ncc5c4)c[nH]3)N12` [Example 43, (3S,8aR)-3-(4-(1H-indazol-5-yl)-1H-imidazol-2-yl)-7-(3-chloro-2-fluoro-6-(1H-tetrazol-1-yl)phenyl)-2,3,8,8a-tetrahydroindolizin-5(1H)-one], the IC50 at Factor XIa worked out at 2.1 nM; on human plasma kallikrein, 4 nM.
As for `COC(=O)Nc1nccc(-c2cnc([C@@H]3CC[C@@H]4CC(c5c(-n6cnnn6)ccc(Cl)c5F)=CC(=O)N43)[nH]2)c1F` [Example 44, Methyl(4-(2-((3S,8aR)-7-(3-chloro-2-fluoro-6-(1H-tetrazol-1-yl)phenyl)-5-oxo-1,2,3,5,8,8a-hexahydroindolizin-3-yl)-1H-imidazol-5-yl)-3-fluoropyridin-2-yl)carbamate], the IC50 on Factor XIa was 1.8 nM; at human plasma kallikrein it was 11.4 nM.
As for `COC(=O)c1nccc(-c2cnc([C@@H]3CC[C@@H]4CC(c5c(-n6cc(Cl)nn6)ccc(Cl)c5F)=CC(=O)N43)[nH]2)c1F` [Example 50], the figures for the IC50 on Factor XIa and on human plasma kallikrein were 19.8 nM and 31.6 nM, respectively.
As for `O=C1C=C(c2c(-n3cnnn3)ccc(Cl)c2F)C[C@H]2CC[C@@H](c3nc(-c4cccc5[nH]ncc45)c[nH]3)N12` [Example 51, (3S,8aR)-3-(4-(1H-indazol-4-yl)-1H-imidazol-2-yl)-7-(3-chloro-2-fluoro-6-(1H-tetrazol-1-yl)phenyl)-2,3,8,8a-tetrahydroindolizin-5(1H)-one], the IC50 at Factor XIa came to 3.8 nM; at human plasma kallikrein, 4.4 nM.
The corresponding values for `COC(=O)c1nccc(-c2cnc([C@@H]3CC[C@@H]4CC(c5c(-n6cnnn6)ccc(Cl)c5F)=CC(=O)N43)[nH]2)c1F` [Example 52, Methyl 4 [2-[(3S,8aR)-7-[3-chloro-2-fluoro-6-(tetrazol-1-yl)phenyl]-5-oxo-2,3,8,8a-tetrahydro-1H-indolizin-3-yl]-1H-imidazol-5-yl]-3-fluoro-pyridine-2-carboxylate] are 3.2 nM and 9.5 nM.
Turning to `O=C1C=C(c2c(-n3cnnn3)ccc(Cl)c2F)CC2CCC(c3ncc(-c4ccnc(-c5ccn[nH]5)c4)[nH]3)N12` (stereo not drawn) [Example 53, 3-(5-(2-(1H-pyrazol-5-yl)pyridin-4-yl)-1H-imidazol-2-yl)-7-(3-chloro-2-fluoro-6-(1H-tetrazol-1-yl)phenyl)-2,3,8,8a-tetrahydroindolizin-5(1H)-one], the IC50 at Factor XIa turned out to be 1.7 nM; at human plasma kallikrein, 2.8 nM.
Regarding `O=C1C=C(c2cc(Cl)ccc2-n2cnnn2)C(F)(F)C2CC[C@@H](c3ncc(-c4ccnc(CO)c4F)[nH]3)N12` (stereo partly drawn) [Example 56, (3S)-7-(5-chloro-2-(1H-tetrazol-1-yl)phenyl)-8,8-difluoro-3-(5-(3-fluoro-2-(hydroxymethyl)pyridin-4-yl)-1H-imidazol-2-yl)-2,3,8,8a-tetrahydroindolizin-5(1H)-one], the IC50 on Factor XIa was determined as 35.2 nM; at human plasma kallikrein, 59.2 nM.
With `Cc1ccc(-n2cnnn2)c(C2=CC(=O)N3[C@H](CC[C@H]3c3ncc(-c4ccnc(CO)c4F)[nH]3)C2)c1F` [Example 57, (3S,8aR)-3-(5-(3-fluoro-2-(hydroxymethyl)pyridin-4-yl)-1H-imidazol-2-yl)-7-(2-fluoro-3-methyl-6-(1H-tetrazol-1-yl)phenyl)-2,3,8,8a-tetrahydroindolizin-5(1H)-one], the IC50 on Factor XIa came out at 20.2 nM; at human plasma kallikrein, 106 nM.
On to `O=C(O)c1nccc(-c2cnc([C@@H]3CC[C@@H]4CC(c5c(-n6cc(C(F)(F)F)nn6)ccc(Cl)c5F)=CC(=O)N43)[nH]2)c1F` [Example 58, 4-(2-((3S,8aR)-7-(3-chloro-2-fluoro-6-(4-(trifluoromethyl)-1H-1,2,3-triazol-1-yl)phenyl)-5-oxo-1,2,3,5,8,8a-hexahydroindolizin-3-yl)-1H-imidazol-5-yl)-3-fluoropicolinic acid], for which the IC50 at Factor XIa came to 0.7 nM; on human plasma kallikrein it was 49.2 nM.
